These results are taken from patent US8058243B2, “Method for treating a brain cancer with ifenprodil” (HSC Research and Development Limited Partnership, priority 2006, dated 2011).

Where a name gives a salt, the structure may show the parent alone. Read-outs that look alike come from different tables or passages of the source.

This assay concerns murine neural precursor cells (neurosphere cultures). Description: HTS of LOPAC library against secondary neurosphere cultures, MTT proliferation assay at 3 μM, day 7 (z score, P value). Type of assay: cell-based, mouse.
Where [1] appears, read: LOPAC library screen, 3 μM, MTT, secondary neurosphere cultures, day 7.
Setting [2] is: LOPAC primary screen, neurosphere MTT proliferation, 3 μM, day 7.
[3] abbreviates: yes/no: significantly inhibited neurosphere proliferation (P<0.01) in the primary screen.
[4] abbreviates: yes/no: significantly inhibited neurosphere proliferation (P<0.01) in primary screen.
Where [5] appears, read: yes = significantly inhibited neurosphere proliferation (P<0.01) in the primary screen.
Where [6] appears, read: yes/no: significantly inhibited neurosphere proliferation in the primary screen.
The mark [7] stands for this setting: primary LOPAC screen, 3 μM, MTT, neurosphere proliferation.
The mark [8] stands for this setting: LOPAC library screen at 3 μM, MTT, secondary neurosphere cultures, screened in singlets.
Where [9] appears, read: LOPAC library screen, 3 μM, MTT, neurosphere cultures.
[10] abbreviates: LOPAC library screen at 3 μM, secondary neurosphere cultures, MTT.
The mark [11] stands for this setting: yes/no: significantly inhibited neurosphere proliferation in primary screen.

With `Nc1nc(O)c2ncn(COC(CO)CO)c2n1` [Ganciclovir], the “Z Score” value under setting [1] was −8.939. Moreover, the Z score under setting [2] is listed as −8.939. Moreover, the Activity result under setting [3] was “yes”.
For the molecule `O=C(O)C1=CCNCC1` [Isoguvacine hydrochloride], under setting [1], the “Z Score” value is −2.22. This molecule displayed a Z score under setting [2] of −2.220. Under setting [4], the Activity result is “no”.
In the case of `Cl.Fc1ccc(CN(C2=NCCN2)c2c(Cl)cccc2Cl)cc1` [IMID-4F hydrochloride], the “Z Score” value was −1.906. Also, under setting [2], the Z score is on record as −1.906. Besides, under setting [4], the Activity entry was “no”.
On to `N=c1ccn2c(n1)O[C@H]1[C@H](O)[C@@H](CO)O[C@H]12` [Ancitabine hydrochloride], for which, under setting [1], the “Z Score” value was −9.951. Under setting [2], this molecule returned a Z score of −9.951. In addition, the Activity entry under setting [5] is reported as “yes”.
For the molecule `Nn1nnc2ccccc21` [1-Aminobenzotriazole], under “168 h, 3 µM”, the “Z Score” value is on record as 0.5236 and the Z score is 0.524. For the same molecule, the Activity entry under setting [6] is listed as “no”.
Turning to `CCN(CC)C(=O)NC1C=C2c3cccc4[nH]cc(c34)C[C@H]2N(C)C1.O=C(O)/C=C\C(=O)O` (stereo partly drawn) [R(+)-Lisuride hydrogen maleate], the “Z Score” value is −1.041. Also, the Z score under setting [2] is reported as −1.041.
With `O=c1n(CCCN2CCN(c3cccc(Cl)c3)CC2)nc2ccccn12` [Trazodone hydrochloride], for the setting “168 h, 3 µM”, the “Z Score” value is on record as −2.644 and the Z score was −2.644. In addition, under setting [3], the Activity entry is reported as “yes”.
As for `O=C1NC(=O)C(c2ccccc2[N+](=O)[O-])=C1Nc1ccc(O)c(Cl)c1` [SB 415286], the “Z Score” value is on record as −2.87. Further, the Z score under setting [2] is on record as −2.870.
Molecule `C[C@@H]1O[C@H](C[N+](C)(C)C)C[C@H]1O.[Cl-]` (racemic) [(±)-Muscarine chloride] gave a Z score under setting [2] of −1.905. In addition, the Activity result under setting [5] was “no”.
Take `Cc1cccc(C)c1N=C1NCCCS1` [Xylazine hydrochloride]: the “Z Score” value is recorded as 0.3755. This molecule registered a Z score under setting [7] of 0.375. In addition, the Activity entry under setting [6] is on record as “no”.
In the case of `CC(=O)OCC1=C(C(=O)O)N2C(=O)[C@@H](NC(=O)Cc3cccs3)[C@H]2SC1` [Cephalothin sodium], the “Z Score” value under setting [8] turned out to be 2.264. For the same molecule, the Z score under setting [2] is on record as 2.264. The Activity entry under setting [3] is listed as “no”.
On to `CC1=C(C(=O)O)N2C(=O)[C@@H](NC(=O)[C@H](N)C3=CCC=CC3)[C@H]2SC1` [Cephradine], for which, under setting [9], the “Z Score” value was 0.7112. Under setting [2], this molecule gave a Z score of 0.711. For the same molecule, the Activity result under setting [3] is “no”.
`CCCCNC(=O)NS(=O)(=O)c1ccc(C)cc1` [Tolbutamide]: the Activity result is “no”. Also, under setting [10], the “Z Score” value is reported as −0.3032. The Z score under setting [7] is −0.303.
`COc1cccc(OC)c1OCCNCC1CSc2ccccc2O1` (centres unmarked) [Benoxathian hydrochloride]: where the note is “168 h, 3 µM”, the “Z Score” value turned out to be 0.2653 and the Z score came to 0.265. Also, the Activity entry under setting [4] is on record as “no”.
For the molecule `CC(=O)O[C@H]1C[C@@H]2CC[C@@H]3[C@H](CC[C@@]4(C)[C@H]3C[C@H]([N+]3(C)CCCCC3)[C@@H]4OC(C)=O)[C@@]2(C)C[C@@H]1[N+]1(C)CCCCC1` [Pancuronium bromide], the “Z Score” value under setting [9] is 0.4077. Under setting [2], this molecule displayed a Z score of 0.408. Further, the Activity result under setting [11] is recorded as “no”.
Regarding `CNCCCC12CCC(c3ccccc31)c1ccccc12` [Maprotiline hydrochloride], the “Z Score” value under setting [10] is given as −0.3615. Moreover, the Z score under setting [2] is given as −0.361. For the same molecule, the Activity result under setting [5] is on record as “no”.
In the case of `N[C@@H](Cc1ccc(F)cc1)C(=O)O` [p-Fluoro-L-phenylalanine], where the note is “168 h, 3 µM”, the “Z Score” value was −0.7023 and the Z score is given as −0.702. The Activity entry under setting [4] is listed as “no”.
As for `COC(=O)c1c(-c2cc(OC)c(OC)c(OC)c2)c2ccc(OCc3ccccn3)cc2c(=O)n1-c1ccc(N)cc1` [T-1032], the “Z Score” value is on record as −2.02. The Z score under setting [7] is −2.020. Moreover, under setting [6], the Activity result was “no”.
Turning to `CCN(CC)CCNC(=O)c1ccc(NC(C)=O)cc1.Cl` [N-Acetylprocainamide hydrochloride], the “Z Score” value was −4.557. Besides, the Z score under setting [2] is on record as −4.557. In addition, the Activity entry under setting [3] is given as “yes”.
In the case of `CC(C)NCC(O)c1ccc(O)c(O)c1.Cl` (single isomer, unassigned; (-)) [(−)-Isoproterenol hydrochloride], the “Z Score” value under setting [9] is given as 0.2367. Besides, under setting [2], the Z score is given as 0.237. The Activity entry under setting [4] is “no”.
In the case of `CC(C)NCC(O)COc1cccc2ccccc12.Cl` (racemic) [(±)-Propranolol hydrochloride], the Z score under setting [2] is 0.357. Moreover, under setting [11], the Activity entry is recorded as “no”.
For `CC1CNCCN1S(=O)(=O)c1cccc2cnccc12.Cl.Cl` (centres unmarked) [H-7 dihydrochloride], the “Z Score” value amounted to 0.6813. The same molecule yielded a Z score under setting [2] of 0.681.
`CN(C)CCCO[C@@H]1[C@H]2OC(C)(C)O[C@H]2O[C@@H]1[C@H](O)CO` [Amiprilose hydrochloride]: for the setting “168 h, 3 µM”, the “Z Score” value was −0.7783 and the Z score was −0.778. In addition, the Activity entry under setting [6] is listed as “no”.
On to `NCC(O)(CS(=O)(=O)O)c1ccc(Cl)cc1` (centres unmarked) [2-Hydroxysaclofen], for which the “Z Score” value under setting [1] is given as −1.624. The Z score under setting [2] was −1.624. Under setting [5], the Activity entry was “no”.
Regarding Quipazine dimaleate, the “Z Score” value is given as −1.444. This molecule also gave a Z score under setting [2] of −1.444. For the same molecule, under setting [11], the Activity entry is reported as “no”.
On to `CCC1(c2ccc(N)cc2)CCC(=O)NC1=O` (centres unmarked) [(B1)-p-Aminoglutethimide], for which the “Z Score” value is −0.4441.
As to `c1ccc(C2CN3CCSC3=N2)cc1` (centres unmarked) [Tetramisole hydrochloride], the “Z Score” value under setting [8] stood at 2.649. This molecule also had a Z score under setting [7] of 2.649. Under setting [6], the Activity result is on record as “no”.
Consider `Cl.O=C(Cc1ccc(Cl)c(Cl)c1)N1CCCCC1CN1CCCC1` (centres unmarked) [BRL 52537 hydrochloride], for which the “Z Score” value is −2.761. The molecule further came in with a Z score under setting [2] of −2.761. Under setting [3], the Activity entry is “yes”.
Consider `O=c1c(-c2ccc(O)cc2)coc2cc(O)ccc12` [Daidzein], for which, under setting [1], the “Z Score” value is on record as −2.931. The molecule further displayed a Z score under setting [2] of −2.931. Also, the Activity result under setting [3] was “yes”.
Turning to `CC1CCN=C(N)S1.Cl` (racemic) [(±)-AMT hydrochloride], the Z score under setting [2] was −2.366. Besides, the Activity result under setting [5] is recorded as “yes”.
`CC(C)[C@@H]1NC(=O)[C@H](CCCCN)NC(=O)[C@@H](Cc2c[nH]c3ccccc23)NC(=O)[C@H](Cc2ccc(O)cc2)NC(=O)[C@H](C)N(C)C(=O)[C@H](Cc2ccccc2)NC1=O` [Seglitide]: the “Z Score” value under setting [10] was −0.662. This molecule also displayed a Z score under setting [2] of −0.662. Further, under setting [11], the Activity entry is “no”.
In the case of `CCCN1CCC[C@@H]2Cc3nc(N)ncc3C[C@H]21.Cl.Cl` [Quinelorane dihydroechloride], the “Z Score” value is recorded as −1.567.
Turning to `COC(=O)N1CCN(C(=O)Cc2ccc(Cl)c(Cl)c2)C(CN2CCCC2)C1.O=C(O)/C=C/C(=O)O` (racemic) [GR-89696 fumarate], the “Z Score” value is −0.7788. Moreover, the Z score under setting [2] was −0.779. Further, the Activity result under setting [3] is reported as “no”.
For the molecule `CCCCCCCCCCCCCCCC(=O)NCCO` [Palmitoylethanolamide], the Activity result is listed as “no”. Also, the “Z Score” value under setting [10] is −0.9134. In addition, the Z score under setting [2] is −0.913.
